Experimental data taken from PMC6375636, “Monotherapy with a low-dose lipopeptide HIV fusion inhibitor maintains long-term viral suppression in rhesus macaques” (PLoS Pathogens, 2019).
Peptide text beside a SMILES is read from it. * marks the point of attachment. Stearoyl = CCCCCCCCCCCCCCCCCC(=O)*; Palmitoyl = CCCCCCCCCCCCCCCC(=O)*

Assays:
Assay type in all cases: cell-based
[1] = biological target: HIV-1 89.6; details: Table 2; 89.6, subtype B, R5X4; mean ± SD of 3 assays in triplicate
Procedure: (§1) The inhibitory activities of inhibitors against HIV-1 pseudoviruses and replication-competent isolates were measured as described previously. Briefly, HIV-1 pseudoviruses were generated via the cotransfection of HEK293T cells with an Env-expressing plasmid and a backbone plasmid that encodes Env-defective, luciferase-expressing HIV-1 genome (pSG3Δenv). Viral stocks of replication-competent HIV-1 isolates were generated by transfecting viral molecular clones into HEK293T cells. Culture supernatants were harvested at 48 h posttransfection, and 50% tissue culture infectious doses (TCID50) in TZM-bl cells were determined. Inhibitors were prepared in 3-fold dilutions, mixed with 100 TCID50 of a virus, and then incubated for 1 h at room temperature. The mixture was added to TZM-bl cells (10^4/well), and the cells were incubated for additional 48 h at 37°C. Luciferase activity was measured as described above.

[2] = biological target: HIV-1 CH040.c/2625; details: Table 2; CH040.c/2625, subtype B, R5; mean ± SD of 3 assays in triplicate
Procedure: as §1

[3] = biological target: HIV-1 NL4-3; details: Table 2; NL4-3, subtype B, X4; mean ± SD of 3 assays in triplicate
Procedure: as §1

[4] = biological target: HIV-1 R3A; details: Table 2, subtype B, R5X4, mean ± SD of 3 assays in triplicate
Procedure: as §1

[5] = biological target: HIV-1 WITO.c/2474; details: Table 2; WITO.c/2474, subtype B, R5; mean ± SD of 3 assays in triplicate
Procedure: as §1

[6] = test system: HIV-1 pseudovirus, primary Env 43–22; details: Env 43–22, subtype B'; mean ± SD of 3 assays in triplicate
Procedure: as §1

[7] = test system: HIV-1 pseudovirus, primary Env AE03; details: Env AE03, subtype A/E; mean ± SD of 3 assays in triplicate
Procedure: as §1

[8] = test system: HIV-1 pseudovirus, primary Env B02; details: Env B02, subtype B'; mean ± SD of 3 assays in triplicate
Procedure: as §1

[9] = test system: HIV-1 pseudovirus, primary Env B04; details: Env B04, subtype B'; mean ± SD of 3 assays in triplicate
Procedure: as §1

[10] = test system: HIV-1 pseudovirus, primary Env BJOX002000.03.2; details: Env BJOX002000.03.2, subtype B/C; mean ± SD of 3 assays in triplicate
Procedure: as §1

[11] = test system: HIV-1 pseudovirus, primary Env CE1176_A3; details: Env CE1176_A3, subtype C; mean ± SD of 3 assays in triplicate
Procedure: as §1

[12] = test system: HIV-1 pseudovirus, primary Env CH070.1; details: Env CH070.1, subtype B/C; mean ± SD of 3 assays in triplicate
Procedure: as §1

[13] = test system: HIV-1 pseudovirus, primary Env CH119.10; details: Env CH119.10, subtype B/C; mean ± SD of 3 assays in triplicate
Procedure: as §1

[14] = test system: HIV-1 pseudovirus, primary Env CH120.6; details: Env CH120.6, subtype B/C; mean ± SD of 3 assays in triplicate
Procedure: as §1

[15] = test system: HIV-1 pseudovirus, primary Env CH64.20; details: Env CH64.20, subtype B/C; mean ± SD of 3 assays in triplicate
Procedure: as §1

[16] = test system: HIV-1 pseudovirus, primary Env CNE55; details: Env CNE55, subtype A/E; mean ± SD of 3 assays in triplicate
Procedure: as §1

[17] = test system: HIV-1 pseudovirus, primary Env GX11.13; details: Env GX11.13, subtype A/E; mean ± SD of 3 assays in triplicate
Procedure: as §1

[18] = test system: HIV-1 pseudovirus, primary Env HIV_25710–2.43; details: Env HIV_25710–2.43, subtype C; mean ± SD of 3 assays in triplicate
Procedure: as §1

[19] = test system: HIV-1 pseudovirus, primary Env JRFL; details: subtype B, mean ± SD of 3 assays in triplicate
Procedure: as §1

[20] = test system: HIV-1 pseudovirus, primary Env PVO; details: subtype B, mean ± SD of 3 assays in triplicate
Procedure: as §1

[21] = test system: HIV-1 pseudovirus, primary Env SC422661.8; details: Env SC422661.8, subtype B; mean ± SD of 3 assays in triplicate
Procedure: as §1

[22] = test system: HIV-1 pseudovirus, primary Env SF162; details: Env SF162, subtype B; mean ± SD of 3 assays in triplicate
Procedure: as §1

[23] = test system: HIV-1 pseudovirus, primary Env SHX335.24; details: Env SHX335.24, subtype A/E; mean ± SD of 3 assays in triplicate
Procedure: as §1

[24] = test system: HIV-1 pseudovirus, primary Env TRO.11; details: Env TRO.11, subtype B; mean ± SD of 3 assays in triplicate
Procedure: as §1

[25] = test system: HIV-1 pseudovirus, primary Env X2278_C2_B6; details: Env X2278_C2_B6, subtype B; mean ± SD of 3 assays in triplicate
Procedure: as §1

[26] = test system: divergent HIV-1 subtypes (pseudoviruses with primary Envs); details: mean of the 36 pseudoviruses of Table 3; for VRC01 >300000 apparently counted as 300000; read-out: Mean IC50 over divergent HIV-1 subtypes
Procedure: as §1

[27] = test system: replication-competent HIV-1 isolates; details: mean of the ten isolates of Table 2; read-out: Mean IC50 over the replication-competent isolates
Procedure: as §1

Row | SMILES | IC50 [1] [pM] | IC50 [2] [pM] | IC50 [3] [pM] | IC50 [4] [pM] | IC50 [5] [pM] | IC50 [6] [pM] | IC50 [7] [pM] | IC50 [8] [pM] | IC50 [9] [pM] | IC50 [10] [pM] | IC50 [11] [pM] | IC50 [12] [pM] | IC50 [13] [pM] | IC50 [14] [pM] | IC50 [15] [pM] | IC50 [16] [pM] | IC50 [17] [pM] | IC50 [18] [pM] | IC50 [19] [pM] | IC50 [20] [pM] | also measured
1 | CCCCCCCCCCCCCCCC(=O)NCCCC[C@H](NC(=O)[C@H](CCC(=O)O)NC(=O)[C@H](CC(C)C)NC(=O)[C@H](CCCCN)NC(=O)[C@H](CCCCN)NC(=O)[C@H](CC(C)C)NC(=O)[C@H](CCC(=O)O)NC(=O)[C@H](CCC(=O)O)NC(=O)[C@H](CCC(=O)O)NC(=O)[C@H](CC(N)=O)NC(=O)[C@H](CCCCN)NC(=O)[C@H](CCCCN)NC(=O)[C@H](CCC(N)=O)NC(=O)[C@H](CCC(N)=O)NC(=O)[C@H](CCC(=O)O)NC(=O)[C@H](CCC(=O)O)NC(=O)[C@H](C)NC(=O)[C@H](CCCCN)NC(=O)[C@H](CCCCN)NC(=O)[C@H](CC(C)C)NC(=O)[C@H](CC(C)C)NC(=O)[C@H](CCC(=O)O)NC(=O)[C@H](CCC(=O)O)NC(=O)[C@@H](NC(=O)[C@H](CCCCN)NC(=O)[C@H](CCC(N)=O)NC(=O)[C@H](CCC(=O)O)NC(=O)[C@H](Cc1c[nH]c2ccccc12)NC(C)=O)[C@@H](C)CC)C(N)=O [LP-52, reference compound] (Ac-WEQKIEELLKKAEEQQKKNEEELKKLEK(Palmitoyl)-NH2) | 17.5 ± 2.05 | 66.7 ± 9.1 | 4.5 ± 2.49 | 13.6 ± 1.99 | 5.29 ± 1.61 | 7.83 ± 0.74 | 10.9 ± 1.89 | 14.9 ± 1.55 | 13.4 ± 0.94 | 36.8 ± 2.93 | 11.1 ± 1.52 | 27.6 ± 3.33 | 10.7 ± 1.62 | 19.9 ± 1.48 | 9.71 ± 0.84 | 17.3 ± 1.41 | 8.7 ± 0.88 | 14.1 ± 1.91 | 46.7 ± 6.96 | 29.7 ± 7.83 | IC50 [21]: 9.39 ± 1.76 pM; IC50 [22]: 26.4 ± 3.81 pM; IC50 [23]: 18.9 ± 0.34 pM; IC50 [24]: 20.6 ± 2.67 pM; IC50 [25]: 1.17 ± 0.22 pM; IC50 [26]: 17 pM; IC50 [27]: 16.9 pM
2 | CCCCCCCCCCCCCCCCCC(=O)NCCCC[C@H](NC(=O)[C@H](CCC(=O)O)NC(=O)[C@H](CC(C)C)NC(=O)[C@H](CCCCN)NC(=O)[C@H](CCCCN)NC(=O)[C@H](CC(C)C)NC(=O)[C@H](CCC(=O)O)NC(=O)[C@H](CCC(=O)O)NC(=O)[C@H](CCC(=O)O)NC(=O)[C@H](CC(N)=O)NC(=O)[C@H](CCCCN)NC(=O)[C@H](CCCCN)NC(=O)[C@H](CCC(N)=O)NC(=O)[C@H](CCC(N)=O)NC(=O)[C@H](CCC(=O)O)NC(=O)[C@H](CCC(=O)O)NC(=O)[C@H](C)NC(=O)[C@H](CCCCN)NC(=O)[C@H](CCCCN)NC(=O)[C@H](CC(C)C)NC(=O)[C@H](CC(C)C)NC(=O)[C@H](CCC(=O)O)NC(=O)[C@H](CCC(=O)O)NC(=O)[C@@H](NC(=O)[C@H](CCCCN)NC(=O)[C@H](CCC(N)=O)NC(=O)[C@H](CCC(=O)O)NC(=O)[C@H](Cc1c[nH]c2ccccc12)NC(C)=O)[C@@H](C)CC)C(N)=O [LP-80] (Ac-WEQKIEELLKKAEEQQKKNEEELKKLEK(Stearoyl)-NH2) | 5.27 ± 0.3 | 22.7 ± 5.55 | 2.45 ± 0.51 | 5.67 ± 0.85 | 3.38 ± 1.09 | 3.24 ± 0.27 | 3.44 ± 0.83 | 8.9 ± 1.03 | 3.81 ± 1.08 | 8.48 ± 0.08 | 2.94 ± 0.19 | 28.5 ± 0.63 | 4.7 ± 0.35 | 10.6 ± 1.02 | 5.75 ± 0.19 | 1.11 ± 0.18 | 4.85 ± 0.99 | 3.2 ± 0.68 | 10.4 ± 2.25 | 13 ± 1.67 | IC50 [21]: 2.55 ± 0.77 pM; IC50 [22]: 3.12 ± 0.37 pM; IC50 [23]: 2.83 ± 0.66 pM; IC50 [24]: 3.92 ± 0.26 pM; IC50 [26]: 5.58 pM; IC50 [27]: 7.09 pM
